Measurements reported in patent US10730863B2, “Bridged bicyclic compounds as farnesoid X receptor modulators” (BRISTOL-MYERS SQUIBB COMPANY, priority 2017, dated 2020).

Molecular target: FXR (Homo sapiens (Human), UniProt Q96RI1)
Experiment: FXR EC50 (FXR agonist activity reported with each example)
Format: cell-based

Chain of FXR (Q96RI1 262-486): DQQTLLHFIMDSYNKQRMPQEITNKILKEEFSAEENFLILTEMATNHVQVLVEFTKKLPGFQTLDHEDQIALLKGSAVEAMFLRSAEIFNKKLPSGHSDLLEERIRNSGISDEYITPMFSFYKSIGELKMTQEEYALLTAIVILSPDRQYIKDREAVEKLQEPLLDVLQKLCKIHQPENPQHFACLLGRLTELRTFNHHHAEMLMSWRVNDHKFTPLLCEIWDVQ

SMILES	EC50 [µM]
O=C(O)c1cc(OC(F)F)cc(-c2noc(C34CCC(/C=C/c5c(-c6c(Cl)cncc6Cl)noc5C5CC5)(CC3)CO4)n2)c1 [Example 479, (E)-3-(5-(4-(2-(5-cyclopropyl-3-(3,5-dichloropyridin-4-yl)isoxazol-4-yl)vinyl)-2-oxabicyclo[2.2.2]octan-1-yl)-1,2,4-oxadiazol-3-yl)-5-(difluoromethoxy)benzoic acid]	0.36
O=C(O)c1ccc2nc(C34CCC(OCc5c(-c6ccccc6OC(F)(F)F)noc5C5CC5)(CC3)CC4)sc2c1 [Example 38]	0.36
O=C(O)c1cccc(/C=C/C23CCC(COCc4c(-c5c(Cl)cccc5Cl)noc4C4CC4)(CC2)CO3)c1 [Example 200]	0.22
COc1ccc(-c2nc(C34CCC(OCc5c(-c6c(Cl)cncc6Cl)noc5C5CC5)(CC3)CC4)cs2)cc1C(=O)O [Example 255, 5-(4-(4-((5-cyclopropyl-3-(3,5-dichloropyridin-4-yl)isoxazol-4-yl)methoxy)bicyclo[2.2.2]octan-1-yl)thiazol-2-yl)-2-methoxybenzoic acid]	0.018
COc1cc(C(=O)O)ccc1OCC12CCC(/C=C/c3c(-c4c(Cl)cncc4Cl)noc3C3CC3)(CC1)CC2 [Example 450, (E)-4-((4-(2-(5-cyclopropyl-3-(3,5-dichloropyridin-4-yl)isoxazol-4-yl)vinyl)bicyclo[2.2.2]octan-1-yl)methoxy)-3-methoxybenzoic acid]	0.018
O=C(O)c1ccc2cc(OCC34CCC(OCc5c(-c6c(Cl)cncc6Cl)noc5C5CC5)(CC3)CC4)ccc2n1 [Example 115, 6-((4-((5-cyclopropyl-3-(3,5-dichloropyridin-4-yl)isoxazol-4-yl)methoxy)bicyclo[2.2.2]octan-1-yl)methoxy)quinoline-2-carboxylic acid]	0.052
O=C(O)c1cccc(-c2noc(C34CCC(COCc5c(-c6c(Cl)cccc6Cl)noc5C5CC5)(CC3)CO4)n2)c1 [Example 210, 3-(5-(4-(((5-cyclopropyl-3-(2,6-dichlorophenyl)isoxazol-4-yl)methoxy)methyl)-2-oxabicyclo[2.2.2]octan-1-yl)-1,2,4-oxadiazol-3-yl)benzoic acid]	0.96
COc1ccc(-c2noc(C34CCC(/C=C/c5c(-c6c(Cl)cncc6Cl)noc5C5CC5)(CC3)CO4)n2)cc1C(=O)O [Example 492, (E)-5-(5-(4-(2-(5-cyclopropyl-3-(3,5-dichloropyridin-4-yl)isoxazol-4-yl)vinyl)-2-oxabicyclo[2.2.2]octan-1-yl)-1,2,4-oxadiazol-3-yl)-2-methoxybenzoic acid]	0.25
O=C(O)c1c(F)ccc2nc(C34CCC(OCc5c(-c6c(Cl)cncc6Cl)noc5C5CC5)(CC3)CC4)sc12 [Example 512, 2-(4-((5-cyclopropyl-3-(3,5-dichloropyridin-4-yl)isoxazol-4-yl)methoxy)bicyclo[2.2.2]octan-1-yl)-6-fluorobenzo[d]thiazole-7-carboxylic acid]	0.043
O=C(O)c1cccc(OCC23CCC(OCc4c(-c5c(Cl)cncc5Cl)noc4C4CC4)(CC2)CC3)c1 [Example 91, 3-((4-((5-cyclopropyl-3-(3,5-dichloropyridin-4-yl)isoxazol-4-yl)methoxy)bicyclo[2.2.2]octan-1-yl)methoxy) benzoic acid]	0.033
O=C(O)c1ccc2nc(C34CCC(OCc5c(-c6c(Cl)cccc6Cl)noc5C5CC5)(CC3)CC4)ccc2n1 [Example 136, 6-(4-((5-cyclopropyl-3-(2,6-dichlorophenyl)isoxazol-4-yl)methoxy)bicyclo[2.2.2]octan-1-yl)-1,5-naphthyridine-2-carboxylic acid]	0.036
COc1cc(C(=O)O)nc2ccc(OCC34CCC(OCc5c(-c6c(Cl)cncc6Cl)noc5C5CC5)(CC3)CC4)cc12 [Example 282, 6-((4-((5-cyclopropyl-3-(3,5-dichloropyridin-4-yl)isoxazol-4-yl)methoxy)bicyclo[2.2.2]octan-1-yl)methoxy)-4-methoxyquinoline-2-carboxylic acid]	0.06
O=C(O)c1cccc(NC(=O)C23CCC(C=Cc4c(-c5c(Cl)cccc5Cl)noc4C4CC4)(CC2)CC3)c1Cl [Example 185]	1.4
Cn1cc(C(=O)O)c2ccc(OCC34CCC(OCc5c(-c6c(Cl)cccc6Cl)noc5C5CC5)(CC3)CC4)cc21 [Example 90, 6-((4-((5-cyclopropyl-3-(2,6-dichlorophenyl)isoxazol-4-yl)methoxy)bicyclo[2.2.2]octan-1-yl)methoxy)-1-methyl-1H-indole-3-carboxylic acid]	0.011
O=C(O)c1cc(OC(F)F)c2cc(OCC34CCC(/C=C/c5c(-c6c(Cl)cncc6Cl)noc5C5CC5)(CC3)OC4)ccc2n1 [Example 472, (E)-6-((1-(2-(5-cyclopropyl-3-(3,5-dichloropyridin-4-yl)isoxazol-4-yl)vinyl)-2-oxabicyclo[2.2.2]octan-4-yl)methoxy)-4-(difluoromethoxy)quinoline-2-carboxylic acid]	0.29
COc1cc(C(=O)O)nc2c(F)cc(OCC34CCC(OCc5c(-c6c(Cl)cncc6Cl)noc5C5CC5)(CC3)CC4)cc12 [Example 303, 6-((4-((5-cyclopropyl-3-(3,5-dichloropyridin-4-yl)isoxazol-4-yl)methoxy)bicyclo[2.2.2]octan-1-yl)methoxy)-8-fluoro-4-methoxyquinoline-2-carboxylic acid]	0.024
CC(C)(O)COc1ccc(C(=O)O)c2ccc(C34CCC(OCc5c(-c6c(Cl)cncc6Cl)noc5C5CC5)(CC3)CC4)nc12 [Example 418, 2-(4-((5-cyclopropyl-3-(3,5-dichloropyridin-4-yl)isoxazol-4-yl)methoxy)bicyclo[2.2.2]octan-1-yl)-8-(2-hydroxy-2-methylpropoxy)quinoline-5-carboxylic acid]	0.12

SMILES	EC50 [µM]
O=C(O)c1cc(-c2nc(C34CCC(OCc5c(-c6ccccc6OC(F)(F)F)noc5C5CC5)(CC3)CC4)no2)ccn1 [Example 58]	4
N#Cc1cc(C(F)(F)F)cc(C23CCC(COCc4c(-c5c(Cl)cncc5Cl)noc4C4CC4)(CC2)CO3)c1 [Example 488, 3-(4-(((5-cyclopropyl-3-(3,5-dichloropyridin-4-yl)isoxazol-4-yl)methoxy)methyl)-2-oxabicyclo[2.2.2]octan-1-yl)-5-(trifluoromethyl)benzonitrile]	2.4
O=C(O)c1cc(C#CC23CCC(OCc4c(-c5c(Cl)cncc5Cl)noc4C4CC4)(CC2)CC3)cc(OC(F)(F)F)c1 [Example 378]	0.13
O=C(O)c1ncc(OCC23CCC(OCc4c(-c5c(Cl)cncc5Cl)noc4C4CC4)(CC2)CC3)cc1OCC(F)(F)F [Example 300, 5-((4-((5-cyclopropyl-3-(3,5-dichloropyridin-4-yl)isoxazol-4-yl)methoxy)bicyclo[2.2.2]octan-1-yl)methoxy)-3-(2,2,2-trifluoroethoxy)picolinic acid]	0.057
O=C(O)c1ccn2c(C#CC34CCC(OCc5c(-c6c(Cl)cncc6Cl)noc5C5CC5)(CC3)CC4)cnc2c1 [Example 393]	0.27
O=C(O)c1ccc2nc(C34CCC(OCc5c(-c6c(Cl)cncc6Cl)noc5C5CC5)(CC3)CC4)ccc2n1 [Example 421]	0.053
N#Cc1cccc(OCC23CCC(OCc4c(-c5c(Cl)cccc5Cl)noc4C4CC4)(CC2)CC3)c1 [Example 88, 3-((4-((5-cyclopropyl-3-(2,6-dichlorophenyl)isoxazol-4-yl)methoxy)bicyclo[2.2.2]octan-1-yl)methoxy)benzonitrile]	0.96
O=C(O)c1ccc(OC2CCCC2)c2nc(C34CCC(OCc5c(-c6c(Cl)cncc6Cl)noc5C5CC5)(CC3)CC4)ccc12 [Example 408]	0.01
NC(=O)c1cc(C(F)(F)F)cc(C23CCC(COCc4c(-c5c(Cl)cncc5Cl)noc4C4CC4)(CC2)CO3)c1 [Example 489, 3-(4-(((5-cyclopropyl-3-(3,5-dichloropyridin-4-yl)isoxazol-4-yl)methoxy)methyl)-2-oxabicyclo[2.2.2]octan-1-yl)-5-(trifluoromethyl)benzamide]	1.4
CC(C)Oc1cc(C(=O)O)nc2ccc(OCC34CCC(/C=C/c5c(-c6c(Cl)cncc6Cl)noc5C5CC5)(CC3)CO4)cc12 [Example 501, (E)-6-((4-(2-(5-cyclopropyl-3-(3,5-dichloropyridin-4-yl)isoxazol-4-yl)vinyl)-2-oxabicyclo[2.2.2]octan-1-yl)methoxy)-4-isopropoxyquinoline-2-carboxylic acid]	0.054
O=C(O)c1cc(OC(F)F)cc(-c2noc(C34CCC(/C=C/c5c(-c6c(Cl)cncc6Cl)noc5C5CC5)(CC3)OC4)n2)c1 [Example 497, (E)-3-(5-(1-(2-(5-cyclopropyl-3-(3,5-dichloropyridin-4-yl)isoxazol-4-yl)vinyl)-2-oxabicyclo[2.2.2]octan-4-yl)-1,2,4-oxadiazol-3-yl)-5-(difluoromethoxy)benzoic acid]	0.46
O=C(O)c1ccc(OCC23CCC(OCc4c(-c5c(Cl)cccc5Cl)noc4C4CC4)(CC2)CC3)nc1 [Example 107, 6-((4-((5-cyclopropyl-3-(2,6-dichlorophenyl)isoxazol-4-yl)methoxy)bicyclo[2.2.2]octan-1-yl)methoxy)nicotinic acid]	0.077
O=C(O)c1ccc2nc(C34CCC(OCc5c(-c6ccccc6OC(F)(F)F)noc5C5CC5)(CC3)CC4)ncc2c1 [Example 62]	1.3
O=C(O)c1ccc(OCC23CCC(OCc4c(-c5c(Cl)cncc5Cl)noc4C4CC4)(CC2)CC3)cn1 [Example 319]	0.27
O=C(O)c1cc(C(F)(F)F)c2ccc(C34CCC(OCc5c(-c6c(Cl)cncc6Cl)noc5C5CC5)(CC3)CC4)nc2c1 [Example 422]	0.36
O=C(O)Cc1ccnc(OCC23CCC(OCc4c(-c5c(Cl)cccc5Cl)noc4C4CC4)(CC2)CC3)c1 [Example 104, 2-(2-((4-((5-cyclopropyl-3-(2,6-dichlorophenyl)isoxazol-4-yl)methoxy)bicyclo[2.2.2]octan-1-yl)methoxy)pyridin-4-yl)acetic acid]	0.21
COCc1cc(OCC23CCC(OCc4c(-c5c(Cl)cncc5Cl)noc4C4CC4)(CC2)CC3)cnc1C(=O)O [Example 293, 5-((4-((5-cyclopropyl-3-(3,5-dichloropyridin-4-yl)isoxazol-4-yl)methoxy)bicyclo[2.2.2]octan-1-yl)methoxy)-3-(methoxymethyl)picolinic acid]	0.016
